Where a name gives a salt, the structure may show the parent alone. Where a SMILES comes first, the peptide text is derived from it. Bridges are numbered along the chain shown (N, C = ends). [ ]: non-standard residue; d: D form. The star is where a group is joined. Octanoyl(6-Me) = CCC(C)CCCCC(=O)*; Dab = NCC[C@H](N)C(=O)O
Tests used:
P. aeruginosa = conditions: concentration range of 0.25–64 µg/mL; cited from earlier work
Description: The antibacterial activity of free CT and its polymeric conjugates was examined against P. aeruginosa. […] When analyzing the results of the MIC values for the conjugates studied, the following trends can be distinguished.

Caco-2 monolayer = assay: Caco-2 cell permeability assay; format: in vitro ADME, human; conditions: 21 days culture, apical to basolateral, 0.5 mg/mL according to CT content in 0.01 M phosphate buffer pH 7.2, PBS basolateral, 2 h, sampled every 30 min, B12 by spectrophotometry, CT by HPLC, mean, n = 3
Method: (§1) The human colon adenocarcinoma cells (Caco-2) obtained from the Cell Culture Collection of the Institute of Cytology RAS (St. Petersburg, Russia) were used to study cell permeability. The study was carried out as described elsewhere. Briefly, Caco-2 cells were cultured in Dulbecco’s modified Eagle medium (DMEM, Biolot, St. Petersburg, Russia) containing L-glutamine, streptomycin/penicillin and 10% FBS in cell culture flasks (area 75 cm^2, Jet Biofil, Guangzhou, China) at 37 °C in a CO2 incubator under humidified conditions. The cultured cells were re-seeded into a new cell culture flask (1:6 ratio) when the cells reached 80–90% confluence. […] The vitamin B12 content and the content of B12-containing conjugates equivalent to vitamin B12 were determined spectrophotometrically, and the CT transferred to the lower chamber was determined by HPLC analysis as described in Section 2.2.2.
(§2) The Papp was calculated as follows:(2) Papp=dQ/dt∗1/A∗C0 where Papp is the apparent permeability coefficient (cm/s), dQ/dt is the permeation rate (µg/s), A is the area of the monolayer (0.3 sm^2), and C0 is the concentration of the test substance in the apical chamber at the initial time point (µg/mL).
(§3) In the case of the CT release and conjugate stability experiments, each assay was performed in three repeats. […] The cell permeability assay and antimicrobial activity were analyzed with n = 3 and 4, respectively. […]

[1] = system: Human embryonic kidney cells (HEK 293); assay: Cytotoxicity, MTT assay; format: cell-based; conditions: HEK 293, MTT, 72 h, n = 6
Method: Human embryonic kidney cells (HEK 293) purchased from the Cell Culture Collection of the Institute of Cytology RAS (St. Petersburg, Russia) were used to study the cytotoxicity of the conjugates. HEK 293 cells were cultured at 37 °C in a humidified atmosphere containing 5% CO2 in modified Eagle’s nutrient medium (MEM, Gibco, Billings, MT, USA) containing 1% essential amino acids, 1% L-glutamine, 50 μg/mL streptomycin, 50 U/mL penicillin, and 10 vol% thermally inactivated fetal bovine serum (FBS, HyClone, Logan, UT, USA). A total of 10^4 cells/100 µL/well was seeded into an adhesive 96-well plate and cultured for 1 day. After that, the medium was removed, and 100 µL of MEM with various concentrations of the test conjugates (4–1000 μg/mL with respect to the CT content) was added to each well with cells and incubated for 72 h. […] After the removal of the supernatant, formazan crystals produced by the metabolically viable cells were dissolved in DMSO (50 μL/well) and transferred to clean wells, followed by measuring the absorbance of the solutions at 570 nm using a multiwell plate reader (ThermoFisher Multiskan Labsystems, Waltham, MA, USA).
as §3

[2] = Caco-2 cell permeability assay; format: in vitro ADME, human; conditions: Caco-2 monolayer, 21 days culture, apical to basolateral; 0.5 mg/mL according to CT content in 0.01 M phosphate buffer pH 7.2; PBS basolateral; 2 h, sampled every 30 min; B12 by spectrophotometry, CT by HPLC; mean, n = 3; read-out: apparent permeability coefficient (Papp)
Method: as §1, §2, §3

[3] = pH 7.4 and 37 °C; cited from earlier work
Method: The stability results of PMAG(10)-(DFOA,CT) conjugates with hydrolyzable (aldimine) bonds and reduced aldimine bonds in different media are summarized in Table 4. It was shown that the release in the buffer and the simulated biorelevant medium was consistent. […] Under gastric conditions, the release after 2 h was 20–26%, whereas under intestinal conditions, a release of 6–12% was detected.

For CC(=O)N(O)CCCCCNC(=O)CCC(=O)N(O)CCCCCNC(=O)CCC(=O)N(O)CCCCCN [DFOA, deferoxamine methanesulfonate salt], the “antibacterial properties against P. aeruginosa” value (P. aeruginosa) is listed as “Neither DFOA nor PMAG is known to possess antibacterial properties”.
In the case of cyanocobalamin [vitamin B12], the “apparent permeability coefficient (Papp)” value (Caco-2 monolayer) is reported as ~ 77 × 10^−6 cm/s.
For CCC(C)CCCCC(=O)N[C@@H](CCN)C(=O)N[C@H](C(=O)N[C@@H](CCN)C(=O)N[C@H]1CCNC(=O)[C@H]([C@@H](C)O)NC(=O)[C@H](CCN)NC(=O)[C@H](CCN)NC(=O)[C@H](CC(C)C)NC(=O)[C@@H](CC(C)C)NC(=O)[C@H](CCN)NC1=O)[C@@H](C)O (stereo partly drawn) [CT, Polymyxin E (colistin, CT) sulfate salt] ({Octanoyl(6-Me)}-[Dab]T[Dab][Dab][Dab][dL]L[Dab][Dab]T; lactam 4-C; N-terminus assumed), the “concentration up to which no toxicity was found” value ([1]; 4–1000 μg/mL with respect to the CT content) was ≤ 250 µg/mL, the “cytotoxicity (in words)” value ([1]; at a concentration of 500 μg/mL (with respect to CT content)) was “moderate cytotoxicity” and the Papp A→B [2] was ~3 ×10⁻⁶ cm/s. For the same molecule, the “half-life of CT” value [3] was 70 h.

Reference: PMC11359296, “Poly(2-Deoxy-2-Methacrylamido-D-Glucose)-Based Complex Conjugates of Colistin, Deferoxamine and Vitamin B12: Synthesis and Biological Evaluation” (Pharmaceutics, 2024)
